Assay results: ChEMBL document CHEMBL5370568, “Discovery of Coixol Derivatives as Potent Anti-inflammatory Agents” (J Nat Prod, 2023)
Active and inactive are the calls of the source. The rule behind the calls is not given here.

Tests used:
RAW264.7 [1] = assay: Antiinflammatory activity in LPS-induced mouse RAW264.7 cells assessed as inhibition of NO production at 20 uM pretreated for 1 hr followed by LPS stimulation and measured after 24 hrs by griess reagent based assay relative to control; format: functional; conditions: time 25 hrs
[2] = Cytotoxicity against mouse RAW264.7 cells incubated for 24 hrs by MTT assay; format: toxicity, cell-based
Mus musculus [3] = assay: Antiinflammatory activity in ICR mouse model of xylene-induced auricle edema assessed as average weight of right ear at 20 mg/kg, IG pretreated for 1 hr followed by xylene addition and measured after 1 hr (reference value: 11.5 +/- 2.1 mg); format: functional; conditions: time 2 hrs
RAW264.7 [4] = assay: Antiinflammatory activity in LPS-induced mouse RAW264.7 cells assessed as inhibition of NO production pretreated for 1 hr followed by LPS stimulation and measured after 24 hrs by griess reagent based assay; format: functional, cell-based
[5] = Inhibition of IL-6 production in LPS-induced mouse RAW264.7 cells incubated for 24 hrs in presence of LPS by ELISA; format: functional, cell-based; conditions: RAW264.7, 24 h
Mus musculus [6] = assay: Antiinflammatory activity in ICR mouse model of xylene-induced ear edema assessed as edema inhibition rate at 25 mg/kg, po pretreated for 1 hr followed by xylene addition and measured after 0.5 hr relative to control; format: functional; conditions: time 1.5 hrs
[7] = Inhibition of IL-1beta production in LPS-induced mouse RAW264.7 cells pretreated for 1 hr followed by LPS stimulation and measured after 24 hrs by ELISA; format: functional, cell-based
Mus musculus [8] = assay: Antiinflammatory activity in ICR mouse model of xylene-induced auricle edema assessed as inhibition rate of ear swelling at 20 mg/kg, IG pretreated for 1 hr followed by xylene addition and measured after 1 hr relative to control; format: functional; conditions: po, time 2 hrs
RAW264.7 [9] = assay: Antiinflammatory activity in LPS-induced mouse RAW264.7 cells assessed as inhibition of NO production incubated for 24 hrs in presence of LPS by griess reagent based assay; format: functional, cell-based; conditions: RAW264.7, 24 h
Mus musculus [10] = assay: Antiinflammatory activity in ICR mouse model of xylene-induced auricle edema assessed as swelling degree at 20 mg/kg, IG pretreated for 1 hr followed by xylene addition and measured after 1 hr (reference value: 4.6 +/- 2 mg); format: functional; conditions: time 2 hrs
Mus musculus [11] = assay: Antiinflammatory activity in ICR mouse model of xylene-induced auricle edema assessed as average weight of left ear at 20 mg/kg, IG pretreated for 1 hr followed by xylene addition and measured after 1 hr (reference value: 6.9 +/- 0.7 mg); format: functional; conditions: time 2 hrs
[12] = Inhibition of TNF-alpha production in LPS-induced mouse RAW264.7 cells incubated for 24 hrs in presence of LPS by ELISA; format: functional, cell-based; conditions: RAW264.7, 24 h
[13] = Inhibition of IL-1beta production in LPS-induced mouse RAW264.7 cells incubated for 24 hrs in presence of LPS by ELISA; format: functional, cell-based; conditions: RAW264.7, 24 h
[14] = Inhibition of TNF-alpha production in LPS-induced mouse RAW264.7 cells pretreated for 1 hr followed by LPS stimulation and measured after 24 hrs by ELISA; format: functional, cell-based
[15] = Inhibition of IL-6 production in LPS-induced mouse RAW264.7 cells pretreated for 1 hr followed by LPS stimulation and measured after 24 hrs by ELISA; format: functional, cell-based
Mus musculus [16] = assay: Antiinflammatory activity in ICR mouse model of xylene-induced auricle edema assessed as average weight of right ear at 40 mg/kg, IG pretreated for 1 hr followed by xylene addition and measured after 1 hr (reference value: 11.5 +/- 2.1 mg); format: functional; conditions: time 2 hrs
HEK-293T = assay: Inhibition of NO production in HEK293T cells expressing iNOS assessed as effect on iNOS dimerization at 0.1 to 10 uM measured after 24 hrs by griess reagent based assay; format: functional, cell-based; conditions: Homo sapiens, dose 0.1-10 µM
Mus musculus [17] = assay: Antiinflammatory activity in ICR mouse model of xylene-induced auricle edema assessed as swelling degree at 40 mg/kg, IG pretreated for 1 hr followed by xylene addition and measured after 1 hr (reference value: 4.6 +/- 2 mg); format: functional; conditions: time 2 hrs
Mus musculus [18] = assay: Antiinflammatory activity in ICR mouse model of xylene-induced auricle edema assessed as average weight of left ear at 40 mg/kg, IG pretreated for 1 hr followed by xylene addition and measured after 1 hr (reference value: 6.9 +/- 0.7 mg); format: functional; conditions: time 2 hrs
RAW264.7 [19] = assay: Antiinflammatory activity in LPS-induced mouse RAW264.7 cells assessed as inhibition of NO production by measuring downregulation of iNOS protein expression at 0.5 to 10 uM pretreated for 2 hr followed by LPS stimulation and measured after 24 hrs by Western blot analysis; format: functional, cell-based; conditions: dose 0.5-10 µM, time 26.0 hrs
Mus musculus [20] = assay: Antiinflammatory activity in ICR mouse model of xylene-induced auricle edema assessed as inhibition rate of ear swelling at 40 mg/kg, IG pretreated for 1 hr followed by xylene addition and measured after 1 hr relative to control; format: functional; conditions: po, time 2 hrs
RAW264.7 [21] = assay: Inhibition of NFkappaB signaling pathway in LPS-induced mouse RAW264.7 cells assessed as reduction in IkappaBalpha phosphorylation pretreated for 2 hrs followed by LPS stimulation and measured after 10 mins by Western blot analysis; format: cell-based; conditions: dose 0.5-2 µM, time 130.0 min
RAW264.7 [22] = assay: Antiinflammatory activity in LPS-induced mouse RAW264.7 cells assessed as inhibition of NO production by measuring downregulation of iNOS protein expression at 2 to 8 uM pretreated for 2 hr followed by LPS stimulation and measured after 24 hrs by Western blot analysis; format: functional, cell-based; conditions: dose 2-8 µM, time 26.0 hrs

SMILES	inhibition at 20 µM (RAW264.7 [1]) [%]	IC50 at 24 h [2] [µM]	other results
O=C(/C=C/c1ccco1)NCCn1c(=O)oc2ccccc21	63.2	> 100	
COc1ccc2oc(=O)n(CCNC(=O)/C=C/c3ccco3)c2c1	56.2	> 100	
COc1ccc2c(c1)oc(=O)n2CCNC(=O)/C=C/c1ccc(Br)o1	25.8	> 100	
COc1ccc2c(c1)oc(=O)n2CCNC(=O)/C=C/c1cccc(Cl)c1	5.2	> 100	
O=C(/C=C/c1ccco1)NCCn1c(=O)oc2cc(Br)ccc21	75.3	68.9	
COc1ccc(/C=C/C(=O)NCCn2c(=O)oc3cc(OC)ccc32)cc1	45.9	68.8	
COc1ccc2c(c1)oc(=O)n2CCNC(=O)/C=C/c1ccccc1OC	6.4	80.2	
COc1ccc2c(c1)oc(=O)n2CCNC(=O)/C=C/c1ccccc1	30.2	> 100	
COc1ccc2c(c1)oc(=O)n2CCNC(=O)/C=C/c1cc2ccccc2o1	35.1	> 100	
COc1ccc2c(c1)oc(=O)n2CCNC(=O)/C=C/c1ccccc1Cl	10.7	> 100	
COc1ccc2c(c1)oc(=O)n2CCNC(=O)/C=C/c1ccoc1	30.3	> 100	
COc1ccc2c(c1)oc(=O)n2CCNC(=O)/C=C/c1ccc(Cl)cc1	38.3	> 100	
COc1cccc(/C=C/C(=O)NCCn2c(=O)oc3cc(OC)ccc32)c1	9.3	> 100	
COc1ccc2c(c1)oc(=O)n2CCNC(=O)/C=C/c1ccc(C(F)(F)F)cc1	42	69.5	
COc1ccc2c(c1)oc(=O)n2CCNC(=O)/C=C/c1ccccn1	42.8	> 100	
COc1ccc(C(C)=O)c(OCCNC(=O)/C=C/c2cc(OC)c(OC)c(OC)c2)c1	88.8		
Cc1ccc(-c2cc(C(F)(F)F)nn2-c2ccc(S(N)(=O)=O)cc2)cc1 [CELECOXIB]	62.4		Activity (Mus musculus [3]): 11.6 mg; IC50 (RAW264.7 [4]): 21.1 µM; IC50 [5]: 36 µM; inhibition in vivo at 25 mg/kg (Mus musculus [6]): 30.9%; IC50 [7]: 14.6 µM; inhibition in vivo at 20 mg/kg (Mus musculus [8]): 27.4%; IC50 (RAW264.7 [9]): 17.9 µM; Activity (Mus musculus [10]): 3.4 mg; Activity (Mus musculus [11]): 8.3 mg; IC50 [12]: 41.2 µM; IC50 [13]: 17.9 µM; IC50 [14]: 12.2 µM; IC50 [15]: 13.7 µM
COc1ccc2[nH]c(=O)oc2c1 [COIXOL]	7.4	> 100	IC50 [7]: 66.4 µM; IC50 [14]: 31.2 µM; IC50 [15]: 48.9 µM
COc1ccc2c(c1)oc(=O)n2CCNC(=O)/C=C/c1cccs1	36.1	> 100	
COc1ccc2c(c1)oc(=O)n2CCNC(=O)/C=C/c1ccc(O)c(OC)c1	7.2	> 100	
COc1ccc2c(c1)oc(=O)n2CCNC(=O)/C=C/c1ccc(F)cc1	4.4	> 100	
COc1ccc2c(c1)oc(=O)n2CCNC(=O)/C=C/c1ccco1	88.4	> 100	Activity (Mus musculus [3]): 12.7 mg; IC50 (RAW264.7 [4]): 2.4 µM; IC50 [7]: 11.6 µM; Activity (Mus musculus [16]): 11 mg; inhibition in vivo at 20 mg/kg (Mus musculus [8]): 30.9%; inhibition (HEK-293T): inactive; Activity (Mus musculus [10]): 3.2 mg; Activity (Mus musculus [11]): 9.5 mg; Activity (Mus musculus [17]): 3 mg; Activity (Mus musculus [18]): 8.1 mg; Activity (RAW264.7 [19]): Active; IC50 [14]: 7.5 µM; IC50 [15]: 8.8 µM; inhibition in vivo at 40 mg/kg (Mus musculus [20]): 35.3%
COc1ccc2c(c1)oc(=O)n2CCNC(=O)/C=C/c1cc(OC)c(OC)c(OC)c1	51.1	> 100	IC50 (RAW264.7 [4]): 26 µM
COc1ccc2c(c1)oc(=O)n2CCNC(=O)/C=C/c1ccc(C)o1	43.2	> 100	
COc1ccc2c(c1)oc(=O)n2CCNC(=O)c1ccco1	29.4	> 100	
COc1ccc2c(c1)oc(=O)n2CCNC(=O)/C=C/c1ccc([N+](=O)[O-])o1	105	38.8	Activity (Mus musculus [3]): 9.7 mg; IC50 (RAW264.7 [4]): 0.8 µM; IC50 [7]: 11.8 µM; Activity (Mus musculus [16]): 10.5 mg; inhibition in vivo at 20 mg/kg (Mus musculus [8]): 47.1%; inhibition (RAW264.7 [21]): Dose-Dependent Effect; inhibition (HEK-293T): inactive; Activity (Mus musculus [10]): 2.4 mg; Activity (Mus musculus [11]): 7.2 mg; Activity (Mus musculus [17]): 2 mg; Activity (Mus musculus [18]): 8.5 mg; IC50 [14]: 10.9 µM; IC50 [15]: 10.3 µM; Activity (RAW264.7 [22]): Active; inhibition in vivo at 40 mg/kg (Mus musculus [20]): 56.6%
COc1ccc2c(c1)oc(=O)n2CCNC(=O)/C=C/c1ccc(OC)c(OC)c1	8.9	> 100	
COc1ccc2c(c1)oc(=O)n2CCNC(=O)/C=C/c1ccc(O)cc1	45.4	59	
COc1ccc2c(c1)oc(=O)n2CCNC(=O)/C=C/c1ccc(C)cc1	30.2	> 100	
